Patent US5326868A, “Certain aryl fused pyrrolopyrimidines; a new class of GABA brain receptor ligands” (Neurogen Corporation, priority 1993, dated 1994)

Key:
GABAa receptor = GABAa receptor activity: displacement of 3H-RO15-1788 (3H-Flumazenil) binding in rat cortical tissue homogenate; settings: 3H-RO15-1788 0.5 nM, 30 min at 4° C., pH 7.4, rat cortical tissue
Procedure: The pharmaceutical utility of compounds of this invention are indicated by the following assay for GABAa receptor activity.
Assays are carried out as described in Thomas and Tallman (J. Bio. Chem. 156: 9838-9842, J. Neurosci. 3: 433-440, 1983). Rat cortical tissue is dissected and homogenized in 25 volumes (w/v) of 0.05M Tris HCl buffer (pH 7.4 at 4° C.). The tissue homogenate is centrifuged in the cold (4°) at 20,000×g for 20'. The supernatant is decanted and the pellet is rehomogenized in the same volume of buffer and again centrifuged at 20,000×g. The supernatant is decanted and the pellet is frozen at -20° C. overnight. The pellet is then thawed and rehomogenized in 25 volume (original wt/vol) of buffer and the procedure is carried out twice. The pellet is finally resuspended in 50 volumes (w/vol of 0.05M Tris HCl buffer (pH 7.4 at […]).
Incubations contain […] of radioligand 0.5 nM (^3 H-RO15-1788 [^3 H-Flumazenil] specific activity 80 Ci/mmol), drug or blocker and buffer to a total volume of […]. Incubations are carried for 30 min at 4° C. then are rapidly filtered through GFB filters to separate free and bound ligand. Filters are washed twice with fresh 0.05M Tris HCl buffer (pH 7.4° at 4° C.) and counted in a liquid scintillation counter. […] diazepam is added to some tubes to determine nonspecific binding. Data are collected in triplicate determinations, averaged and % inhibition of total specific binding is calculated. Total Specific Binding=Total - Nonspecific. In some cases, the amounts of unlabeled drugs is varied and total displacement curves of binding are carried out. Data are converted to a form for the calculation of IC50 and Hill Coefficient (nH).

GABA receptor = settings: Tallman et al., 1978; cited from earlier work

| IC50 (GABAa receptor) [µM] | Compound | blocking of enhancement of benzodiazepine binding by GABA agonists (GABA receptor) |
| --- | --- | --- |
| 0.0025 | COc1ccc(-c2ncc3[nH]c4ccccc4c3n2)c(F)c1 [Compound 1, 2-(2-Fluoro-4-methoxyphenyl)-5H-indolo[3,2-d]pyrimidine] | – |
| 0.02 | c1ccc(-c2ncc3[nH]c4ccccc4c3n2)cc1 [Compound 4, 2-Phenyl-5H-indolo[3,2-d]pyrimidine] | – |
| – | CN1CCc2cc3c(cc2[C@H]1[C@@H]1OC(=O)c2c1ccc1c2OCO1)OCO3 [(+) bicuculline] | blocked |
| – | CN1CCc2cc3c(cc2[C@@H]1[C@H]1OC(=O)c2c1ccc1c2OCO1)OCO3 [(-) bicuculline] | much less active |

| Compound | IC50 (GABAa receptor) [µM] | blocking of enhancement of benzodiazepine binding by GABA agonists (GABA receptor) |
| --- | --- | --- |
| Oc1nc(-c2ccccc2)nc2c1[nH]c1ccccc12 [Compound 2, 4-Hydroxy-2-phenyl-5H-indolo[3,2-d]pyrimidine] | 0.1 | – |
